Assay results as given in patent US11548868B2, “Heterocyclic compounds, compositions comprising heterocyclic compound, and methods of use thereof” (JS INNOPHARM (SHANGHAI) LTD, priority 2017, dated 2023).
pIC50: −log10 of the molar value.

Tests used:
Recombinant human IDO1 = Recombinant human IDO1 (Homo sapiens, UniProt P14902); assay: IDO1 Enzymatic Assay; settings: recombinant human IDO1 40 nM, L-tryptophan 100 μM, 40 min room temperature, N′-formylkynurenine absorbance 321 nm; read-out: IDO1 biochemical activity*
Protocol: (§1) The IDO1 biochemical inhibitory activity is determined by measuring the decrease in N′-formylkynurenine from tryptophan catalyzed by IDO1 enzyme. Recombinant human IDO1 (40 nM), L-tryptophan (100 μM), L-ascorbic acid (20 mM), methylene Blue (20 μM), catalase (0.2 mg/mL), and serial dilutions of the test compounds in a total volume of […] containing DMSO (with final DMSO concentration of 0.5%) and a pH 7.5 buffer containing potassium phosphate (50 mM) were added into each well in a 96-well plate. After incubation at room temperature for 40 min, the absorbance of the reaction mixture was read at 321 nm to measure the formation of N′-formylkynurenine by SpectraMax microplate reader. Percent inhibition of the test compounds was determined by measuring the decrease in N′-formylkynurenine as compared to the control of DMSO vehicle, which was calculated by formula of (WC−WT)/WC, where WC is the mean absorbance of the control well minus blank well; WT is the mean absorbance of the test well minus the blank well. Data was analyzed by GraphPad Prism 5 and the IC50 values were obtained by non-linear regression.
The IC50 values of IDO1 biochemical activity for the examples disclosed herein are listed in Table 2, A: ≤0.1 μM; B: >0.10 μM and ≤0.5 μM; C: >0.5 μM and ≤1.0 μM; and D: >1.0 μM.

[1] = biological target: T1, TDO2 in A172 cancer cells (Homo sapiens, UniProt P48775); assay: TDO2 Cellular Assay (kynurenine production in A172 cancer cells); type: cell-based; settings: L-Trp 1 mM, 24 hours incubation, kynurenine at 490 nm
T1 construct: endogenous in cells; host or cells: A172 cancer cells
Method in brief: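 Kynurenine output of A172 cells was read colorimetrically at 490 nm (Ehrlich reagent after TCA hydrolysis at 50 °C). Cells had 1 mM L-Trp plus compound at 0–25 μM in 0.25% DMSO for 24 h; IC50 values were fitted non-linearly from percent inhibition relative to vehicle.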

Recombinant human TDO2 = Recombinant human TDO2 (Homo sapiens, UniProt P48775); assay: TDO2 Enzymatic Assay; type: biochemical; settings: recombinant human TDO2 200 nM, L-tryptophan 300 μM, 40 min room temperature, N′-formylkynurenine absorbance 321 nm; read-out: TDO2 bichemical activity*
Protocol: as §1, with “TDO2” for “IDO1”, “TDO2 (200” for “IDO1 (40”, “(300” for “(100”, “(WC-WT)/WC,” for “(WC−WT)/WC,”
The IC50 values of TDO2 biochemical activity for the examples disclosed herein are listed in Table 2, A: ≤0.1 μM; B: >0.10 μM and ≤0.5 μM; C: >0.5 μM and ≤1.0 μM; and D: >1.0 μM.

[2] = biological target: T2, IDO1 in Hela cancer cells (Homo sapiens, UniProt P14902); assay: IDO1 Cellular Assay (kynurenine production in IFN-γ stimulated Hela cancer cells); type: cell-based; settings: human IFN-γ 50 ng/mL, 48 hours incubation, kynurenine at 490 nm
T2 construct: endogenous in cells; host or cells: Hela cancer cells stimulated with human IFN-γ
Method in brief: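 HeLa cells stimulated with 50 ng/mL IFN-γ (final) and treated 48 h with compound (0–25 μM final, 0.25% DMSO). Supernatant kynurenine measured after TCA hydrolysis and p-dimethylaminobenzaldehyde reaction at 490 nm; inhibition vs DMSO control, IC50 by non-linear regression.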

Sequence of Recombinant human IDO1 (P14902 whole entry): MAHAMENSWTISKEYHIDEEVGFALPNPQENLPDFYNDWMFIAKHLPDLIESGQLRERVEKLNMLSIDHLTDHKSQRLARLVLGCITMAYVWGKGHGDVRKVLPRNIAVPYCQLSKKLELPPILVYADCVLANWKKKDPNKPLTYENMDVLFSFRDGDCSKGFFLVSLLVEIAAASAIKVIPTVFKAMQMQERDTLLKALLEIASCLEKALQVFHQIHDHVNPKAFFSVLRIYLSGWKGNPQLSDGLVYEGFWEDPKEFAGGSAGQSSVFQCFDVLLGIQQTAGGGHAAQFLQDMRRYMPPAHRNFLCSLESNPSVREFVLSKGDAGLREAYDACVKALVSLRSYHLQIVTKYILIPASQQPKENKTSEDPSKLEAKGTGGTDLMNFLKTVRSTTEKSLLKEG
T2 sequence (P14902 whole entry): as above
T1 sequence (P48775 whole entry): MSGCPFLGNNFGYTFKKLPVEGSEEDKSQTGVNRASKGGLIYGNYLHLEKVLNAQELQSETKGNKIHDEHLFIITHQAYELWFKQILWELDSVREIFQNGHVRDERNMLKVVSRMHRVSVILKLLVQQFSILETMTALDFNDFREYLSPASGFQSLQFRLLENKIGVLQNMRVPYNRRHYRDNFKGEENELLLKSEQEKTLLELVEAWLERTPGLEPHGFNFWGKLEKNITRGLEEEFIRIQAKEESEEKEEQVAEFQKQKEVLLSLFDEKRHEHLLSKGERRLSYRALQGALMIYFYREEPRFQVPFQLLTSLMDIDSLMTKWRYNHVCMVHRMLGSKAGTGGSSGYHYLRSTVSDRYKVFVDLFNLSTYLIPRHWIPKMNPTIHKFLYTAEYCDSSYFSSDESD
Sequence of Recombinant human TDO2 (P48775 whole entry): as above

SMILES	pIC50 (Recombinant human IDO1)	pIC50 [1]	pIC50 (Recombinant human TDO2)	pIC50 [2]
CS(=O)(=O)N1CCC2CN(c3cc(Cl)cc4[nH]ncc34)CC21 (stereo not drawn) [Example 23, 6-chloro-4-(1-(methylsulfonyl)hexahydropyrrolo[3,4-b]pyrrol-5(1H)-yl)-1H-indazole]	< 6.00	6.00 to 6.30	–	–
CS(=O)(=O)N1CCCC2CN(c3cc(Cl)cc4[nH]ncc34)CC21 (stereo not drawn) [Example 13, 6-chloro-4-(1-(methylsulfonyl)hexahydro-1H-pyrrolo[3,4-b]pyridin-6(2H)-yl)-1H-indazole]	< 6.00	6.00 to 6.30	–	–
CC(=O)NC1[C@H]2CN(c3cc(Cl)cc4[nH]ncc34)C[C@@H]12 (stereo partly drawn) [Example 17, N-((1R,5S)-3-(6-chloro-1H-indazol-4-yl)-3-azabicyclo[3.1.0]hexan-6-yl)acetamide]	< 6.00	5.30 to 6.00	–	–
CC(=O)N[C@@H]1[C@@H]2CN(c3cc(Cl)cc4[nH]ncc34)C[C@@H]21 [Example 21, N-((1R,5S,6r)-3-(6-chloro-1H-indazol-4-yl)-3-azabicyclo[3.1.0]hexan-6-yl)acetamide]	< 6.00	5.30 to 6.00	–	–
CC(=O)N1CCCC2CN(c3cc(Cl)cc4[nH]ncc34)CC21 (stereo not drawn) [Example 15, 1-(6-(6-chloro-1H-indazol-4-yl)octahydro-1H-pyrrolo[3,4-b]pyridin-1-yl)ethanone]	< 6.00	≥ 6.30	–	–
CC1(C)C2CN(c3cc(Cl)cc4[nH]ncc34)CC2CN1S(C)(=O)=O (single isomer, unassigned) [Example 1b]	6.30 to 7.00	≥ 6.30	≥ 7.00	< 5.30
CS(=O)(=O)NC1[C@H]2CN(c3cc(Cl)cc4[nH]ncc34)C[C@@H]12 (stereo partly drawn) [Example 16, N-((1R,5S)-3-(6-chloro-1H-indazol-4-yl)-3-azabicyclo[3.1.0]hexan-6-yl)methanesulfonamide]	< 6.00	5.30 to 6.00	–	–
O[C@@]1(c2cc(Cl)cc3[nH]ncc23)C[C@H]2C[C@H]2C1 [Example 25, (1R,3r,5S)-3-(6-chloro-1H-indazol-4-yl)bicyclo[3.1.0]hexan-3-ol]	6.00 to 6.30	≥ 6.30	≥ 7.00	5.30 to 6.00
CC1(C)C2CN(c3cc(Cl)cc4[nH]ncc34)CC2CN1S(=O)(=O)C1CC1 (stereo not drawn) [Example 28, 6-chloro-4-(5-(cyclopropylsulfonyl)-4,4-dimethylhexahydropyrrolo[3,4-c]pyrrol-2(1H)-yl)-1H-indazole]	< 6.00	≥ 6.30	–	–
CC(=O)N1C[C@@H]2C[C@@](O)(c3cc(Cl)cc4[nH]ncc34)C[C@@H]2C1 [Example 22, 1-((3aR,5r,6aS)-5-(6-chloro-1H-indazol-4-yl)-5-hydroxyhexahydrocyclopenta[c]pyrrol-2(1H)-yl)ethanone]	< 6.00	≥ 6.30	≥ 7.00	< 5.30
CC1(C)C2CN(c3cc(Cl)cc4[nH]ncc34)CC2CN1S(C)(=O)=O (single isomer, unassigned) [Example 1a]	< 6.00	6.00 to 6.30	≥ 7.00	–
CS(=O)(=O)N1C[C@H]2CN(c3cc(Cl)cc4[nH]ncc34)C[C@H]2C1 [Example 12, 6-chloro-4-((3aR,6aS)-5-(methylsulfonyl)hexahydropyrrolo[3,4-c]pyrrol-2(1H)-yl)-1H-indazole]	< 6.00	≥ 6.30	–	–
Cn1ncc2c(N3CC4CCN(S(C)(=O)=O)C4C3)cc(Cl)cc21 (stereo not drawn) [Example 20, 6-chloro-1-methyl-4-(1-(methylsulfonyl)hexahydropyrrolo[3,4-b]pyrrol-5(1H)-yl)-1H-indazole]	< 6.00	< 5.30	–	–
CS(=O)(=O)N[C@@H]1[C@@H]2CN(c3cc(Cl)cc4[nH]ncc34)C[C@@H]21 [Example 24, N-((1R,5S,6r)-3-(6-chloro-1H-indazol-4-yl)-3-azabicyclo[3.1.0]hexan-6-yl)methanesulfonamide]	< 6.00	5.30 to 6.00	–	–
CC(=O)N1CCC2CN(c3cc(Cl)cc4[nH]ncc34)CC21 (stereo not drawn) [Example 19, 1-(5-(6-chloro-1H-indazol-4-yl)hexahydropyrrolo[3,4-b]pyrrol-1(2H)-yl)ethanone]	< 6.00	6.00 to 6.30	–	–
CC(=O)N1CC2CN(c3cc(Cl)cc4[nH]ncc34)CC2C1(C)C (stereo not drawn) [Example 18, 1-(5-(6-chloro-1H-indazol-4-yl)-1,1-dimethylhexahydropyrrolo[3,4-c]pyrrol-2(1H)-yl)ethanone]	6.00 to 6.30	≥ 6.30	≥ 7.00	–
CS(=O)(=O)N1C[C@@H]2C[C@@](O)(c3cc(Cl)cc4[nH]ncc34)C[C@@H]2C1 [Example 2, (3aR,5r,6aS)-5-(6-chloro-1H-indazol-4-yl)-2-(methylsulfonyl)octahydrocyclopenta[c]pyrrol-5-ol]	6.30 to 7.00	≥ 6.30	≥ 7.00	6.00 to 6.30
CC(=O)N1C[C@@H]2CN(c3cc(Cl)cc4[nH]ncc34)C[C@@H]2C1 [Example 14, 1-((3aR,6aS)-5-(6-chloro-1H-indazol-4-yl)hexahydropyrrolo[3,4-c]pyrrol-2(1H)-yl)ethanone]	< 6.00	6.00 to 6.30	–	–
CC1(C)C2CN(c3cc(Cl)cc4[nH]ncc34)CC2CN1C(=O)c1ccc(C#N)cc1 (stereo not drawn) [Example 27, 4-(5-(6-chloro-1H-indazol-4-yl)-1,1-dimethyloctahydropyrrolo[3,4-c]pyrrole-2-carbonyl)benzonitrile]	< 6.00	6.00 to 6.30	–	–
